Experimental data published in patent publication US6555709B1, “Aromatic amides, their preparation process and their use as pesticides” (Hoechst Schering AgrEvo S.A., priority 1997, dated 2003).

Experiments:
Assay type in all cases: in vivo
[1] = test system: Spodoptera Littoralis; assay: Study on Spodoptera littoralis, treated haricot leaves; conditions: starting from a dose of 300 ppm; larvae on dipped haricot leaves; checked after seven days; 25° C.
Method: B) Study on Spodoptera Littoralis The product was dissolved at the desired concentration in an acetone-water mixture (50-50). Haricot leaves (Phaseolus vulgaris, var. […]) were immersed for five seconds in the solution, then left to dry in a Petri dish for one hour. Ten larvae of Spodoptera littoralis were then added to each dish. These are were at a temperature of 25° C., with a photoperiod of twelve hours. After seven days, the mortality of the larvae was checked and the foliar surface consumed is evaluated.

[2] = test system: Heliothis Virescens; assay: Study on Heliothis virescens, treated artificial medium; conditions: starting from a dose of 300 ppm; neonate larva on treated artificial medium; checked after seven days; 25° C.
Method: C) Study on Heliothis Virescens The product was dissolved at the desired concentration in an acetone-water mixture (50-50). 50 μl of solution is deposited on the surface of small well containing approximately 2 grams of plant based artificial medium. One neonate larva of Heliothis virescens was then introduced into each well, which was sealed with a sheet of cellophane. The tests were kept at a temperature of 25° C., with a photoperiod of twelve hours., The mortality of the larvae was checked after seven days.

[3] = test system: Phaedon Cochleariae; assay: Study on Phaedon cochleariae, treated Chinese cabbage foliar disks; conditions: dose of 300 ppm; adults on dipped Chinese cabbage disks; checked after seven days; 25° C.
Method: A) Study on Phaedon Cochleariae The product was dissolved at the desired concentration in an acetone-water mixture (50-50). Foliar disks of Chinese cabbage (Brassica pekinensis) were immersed for five seconds in the solution, then left to dry for one hour. Ten adults (a mixture of males and females) were added into a Petri dish containing a foliar disk. These were kept at a temperature of 25° C., with a photoperiod of twelve hours. After seven days, the mortality of the insects was checked and the foliar surface consumed is evaluated.

[4] = test system: Diabrotica undecimpunctata; assay: Study of the activity on Diabrotica, treated filter paper; conditions: starting from a dose of 300 ppm; final stage larvae on treated filter paper; checked 24 hours after treatment
Method: D) Study of the Activity on Diabrotica The test insects were final stage larvae of Diabrotica undecimpunctata. A 9 cm disc of filter paper, placed at the bottom of Petri dish, was treated using 1 cm^3 of an acetone solution. After drying 15 larvae per dose were deposited and the mortality check was carried out 24 hours after treatment.

SMILES | activity (mortality of the larvae and foliar surface consumed) [1] | activity (mortality of the larvae) [2] | activity (mortality of the insects and foliar surface consumed) [3] | activity (mortality) [4]
Cc1ccccc1NC(=O)c1ccc(Cc2ccc3c(Br)cccc3c2)cc1 [Product C] | very good activity | very good activity | – | –
Cc1ccccc1NC(=O)c1ccc(CC2=Cc3ccc(Cl)c(Cl)c3CC2)cc1 [Product A] | very good activity | very good activity | very useful activity | very good activity
Cc1ccccc1NC(=O)c1ccc(Cc2ccc3cc(Cl)ccc3c2)cc1 [Product B] | very good activity | very good activity | – | –
Cc1ccccc1NC(=O)c1ccc(CC2=Cc3ccc(Br)cc3CC2)cc1 [Product E] | very good activity | very good activity | – | –
Cc1ccccc1NC(=O)c1ccc(Cc2ccc3cc(Br)ccc3c2)cc1 [Product D] | very good activity | very good activity | – | –
CC(C)C(C)NC(=O)c1ccc(Cc2ccc3cc(Cl)ccc3c2)cc1 (stereo not shown) [Product L] | – | very good activity | – | very good activity
Cc1ccccc1NC(=O)c1ccc(CC2=Cc3cc(Br)c(Br)cc3CC2)cc1 [Product H] | very good activity | very good activity | – | –
C=C(NC(C)C(C)C)c1ccc(Cc2ccc3cc(Cl)c(Cl)cc3c2)cc1 (stereo not shown) [Product M] | – | very good activity | – | very good activity
Cc1ccccc1NC(=O)c1ccc(CC2=Cc3ccc(I)cc3CC2)cc1 [Product G] | very good activity | very good activity | – | –
Cc1ccccc1NC(=O)c1ccc(Cc2ccc3c(c2)CC(Br)C(Br)C3)cc1 (stereo not shown) [Product I] | very good activity | very good activity | – | –
Cc1ccccc1NC(=O)c1ccc(CC2CCc3c(ccc(Cl)c3Cl)C2F)cc1 (stereo not shown) [Product J] | very good activity | very good activity | – | –
O=C(Nc1ccccc1)c1ccc(Cc2ccc3cc(Cl)c(Cl)cc3c2)cc1 [Product K] | very good activity | very good activity | – | –
Cc1ccccc1NC(=O)c1ccc(CC2CCc3cc(I)ccc3C2)cc1 (stereo not shown) [Product F] | very good activity | very good activity | – | –
